From ChEMBL document CHEMBL1201862, “PubChem BioAssay data set” (2004)
Values belong to the compound of their own block, whether it stands above or below them. Calls of active or inactive are those of the source.

Legend:
[1] = target: T1, Bcl-2-related protein A1 (Mus musculus, UniProt Q07440); type: functional;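 also: confirmatory dose–response counterscreen on Bfl-1, used to check hits from a UBC13 polyubiquitin inhibitor campaign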
T1 sequence (Q07440 whole entry): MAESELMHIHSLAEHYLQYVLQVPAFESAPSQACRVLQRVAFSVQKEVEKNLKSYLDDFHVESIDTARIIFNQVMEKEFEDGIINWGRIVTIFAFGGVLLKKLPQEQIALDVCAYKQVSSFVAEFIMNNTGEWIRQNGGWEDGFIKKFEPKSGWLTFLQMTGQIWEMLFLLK

[2] = target: T2, Ubiquitin-conjugating enzyme E2 N (Homo sapiens, UniProt P61088); type: functional
T2 sequence (P61088 whole entry): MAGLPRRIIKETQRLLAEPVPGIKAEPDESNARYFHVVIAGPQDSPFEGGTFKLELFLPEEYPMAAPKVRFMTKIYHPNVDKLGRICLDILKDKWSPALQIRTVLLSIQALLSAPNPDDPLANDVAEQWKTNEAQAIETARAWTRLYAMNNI

[3] = target: T2, Ubiquitin-conjugating enzyme E2 N; type: functional; remark: listed apart in the source
[4] = target: T3, Delta-type opioid receptor (Homo sapiens, UniProt P41143); test: DOR antagonists, SAR follow-up, image-based (AID 2357); type: functional
T3 sequence (P41143 whole entry): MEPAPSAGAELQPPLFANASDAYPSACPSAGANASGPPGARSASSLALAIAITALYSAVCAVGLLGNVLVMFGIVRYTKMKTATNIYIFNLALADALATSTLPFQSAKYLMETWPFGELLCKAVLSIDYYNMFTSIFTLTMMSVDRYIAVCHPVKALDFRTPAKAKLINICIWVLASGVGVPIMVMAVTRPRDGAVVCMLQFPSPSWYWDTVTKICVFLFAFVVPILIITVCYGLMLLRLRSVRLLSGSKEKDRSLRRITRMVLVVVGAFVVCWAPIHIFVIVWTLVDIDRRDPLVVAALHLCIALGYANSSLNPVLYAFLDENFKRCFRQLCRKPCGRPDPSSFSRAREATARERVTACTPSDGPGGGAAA

[5] = target: T4, Kappa-type opioid receptor (Homo sapiens, UniProt P41145); type: functional
T4 sequence (P41145 whole entry): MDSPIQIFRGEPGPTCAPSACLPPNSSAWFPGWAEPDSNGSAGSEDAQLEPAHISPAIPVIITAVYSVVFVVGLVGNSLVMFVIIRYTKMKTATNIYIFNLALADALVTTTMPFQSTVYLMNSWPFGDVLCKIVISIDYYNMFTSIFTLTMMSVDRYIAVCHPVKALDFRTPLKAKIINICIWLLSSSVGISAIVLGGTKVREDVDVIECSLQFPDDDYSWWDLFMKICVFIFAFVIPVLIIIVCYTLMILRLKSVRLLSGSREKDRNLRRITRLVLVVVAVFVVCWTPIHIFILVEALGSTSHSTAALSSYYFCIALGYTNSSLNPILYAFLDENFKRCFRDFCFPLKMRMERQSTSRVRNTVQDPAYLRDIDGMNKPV

[6] = target: T3, Delta-type opioid receptor; test: HTS Image-Based Screen for Agonists of the DOR Receptor. [Related pubchem assays (depositor defined):AID1777, AID1786, AID2133]; type: functional
[7] = target: T4, Kappa-type opioid receptor; test: KOR agonist analogs, imaging readout, SAR follow-up, image-based (AID 2359); type: functional
[8] = target: T3, Delta-type opioid receptor; test: DOR agonists, SAR follow-up, image-based (AID 2370); type: functional
[9] = target: T5, Mu-type opioid receptor (Homo sapiens, UniProt P35372); test: HTS Image-Based Screen for Agonists of the MOR Receptor. [Related pubchem assays (depositor defined):AID1777, AID1785, AID1786, AID2133]; type: functional
T5 sequence (P35372 whole entry): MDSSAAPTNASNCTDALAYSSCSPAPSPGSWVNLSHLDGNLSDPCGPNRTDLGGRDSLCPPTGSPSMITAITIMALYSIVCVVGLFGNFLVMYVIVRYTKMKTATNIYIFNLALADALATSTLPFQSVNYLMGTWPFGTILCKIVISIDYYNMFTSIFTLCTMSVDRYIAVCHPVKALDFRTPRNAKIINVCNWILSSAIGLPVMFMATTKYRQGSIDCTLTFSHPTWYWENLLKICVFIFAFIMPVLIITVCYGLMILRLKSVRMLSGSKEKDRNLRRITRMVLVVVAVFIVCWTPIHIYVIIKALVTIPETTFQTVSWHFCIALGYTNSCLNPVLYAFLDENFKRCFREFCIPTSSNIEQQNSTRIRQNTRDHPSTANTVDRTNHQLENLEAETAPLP

[10] = target: T4, Kappa-type opioid receptor; type: functional; remark: listed apart in the source
[11] = target: T4, Kappa-type opioid receptor; test: SAR analysis of small molecule agonists of the kappa opioid receptor via a luminescent beta-arrestin assay. [Related pubchem assays (depositor defined):AID1777, AID1786, AID1966, AID2133, AID2136, AID2348, AID2352, AID2357, AID2359, AID2370, AID2420, AID2478, AID2491, AID2492, AID2493, AID2497, AID2498, AID2500, AID449737, AID488822, AID488842]; type: functional
[12] = target: T3, Delta-type opioid receptor; test: HTS Image-Based Screen for Antagonists of the DOR Receptor. [Related pubchem assays (depositor defined):AID1777, AID1785, AID1786, AID2133]; type: functional
[13] = target: T4, Kappa-type opioid receptor; test: KOR antagonists by imaging, SAR follow-up, image-based (AID 2348); type: functional
[14] = target: T5, Mu-type opioid receptor; test: MOR antagonists, SAR follow-up, image-based (AID 2420); type: functional;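 also: compounds added before stimulation of receptor with agonist DAMGO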
[15] = target: T5, Mu-type opioid receptor; test: MOR agonists by imaging, SAR follow-up, image-based (AID 2352); type: functional
[16] = target: Intestinal-type alkaline phosphatase (Mus musculus, UniProt P24822); test: mouse intestinal alkaline phosphatase activators, dose response, biochemical, luminescence, uHTS hits (AID 488783); type: functional
Sequence of Intestinal-type alkaline phosphatase (Mus musculus, UniProt P24822) (P24822 whole entry): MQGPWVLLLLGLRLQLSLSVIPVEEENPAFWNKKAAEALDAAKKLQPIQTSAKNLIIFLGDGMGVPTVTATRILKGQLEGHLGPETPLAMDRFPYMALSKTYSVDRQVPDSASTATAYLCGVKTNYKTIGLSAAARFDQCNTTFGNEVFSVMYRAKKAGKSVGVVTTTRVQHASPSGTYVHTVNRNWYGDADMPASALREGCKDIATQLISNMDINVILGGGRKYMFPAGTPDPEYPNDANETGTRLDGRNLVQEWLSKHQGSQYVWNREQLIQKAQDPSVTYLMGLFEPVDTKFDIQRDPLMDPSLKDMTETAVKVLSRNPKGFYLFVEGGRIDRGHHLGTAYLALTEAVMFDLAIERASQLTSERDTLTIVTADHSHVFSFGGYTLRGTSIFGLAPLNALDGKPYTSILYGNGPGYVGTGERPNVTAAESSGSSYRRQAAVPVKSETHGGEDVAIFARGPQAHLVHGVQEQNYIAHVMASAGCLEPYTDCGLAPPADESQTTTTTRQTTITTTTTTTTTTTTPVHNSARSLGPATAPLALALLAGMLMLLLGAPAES

[17] = target: T6, Caspase-6 (Homo sapiens, UniProt P55212); test: human caspase-6 inhibitors, dose response, biochemical, VEID-R110 fluorescence, cherry-pick (AID 720632)
T6 sequence (P55212 whole entry): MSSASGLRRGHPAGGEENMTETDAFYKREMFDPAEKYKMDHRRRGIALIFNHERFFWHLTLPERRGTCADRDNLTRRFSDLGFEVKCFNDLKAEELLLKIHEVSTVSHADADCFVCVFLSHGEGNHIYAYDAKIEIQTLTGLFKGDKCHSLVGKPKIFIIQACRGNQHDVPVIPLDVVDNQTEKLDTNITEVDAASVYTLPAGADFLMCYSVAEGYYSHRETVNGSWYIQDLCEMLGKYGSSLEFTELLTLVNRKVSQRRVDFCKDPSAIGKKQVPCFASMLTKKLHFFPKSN

[18] = target: T7, Alkaline phosphatase, tissue-nonspecific isozyme (Homo sapiens, UniProt P05186); test: TNAP enzyme activators, dose response, selectivity assay for mouse IAP activator project, biochemical, TNAP isozyme, mouse IAP uHTS hits (AID 488880); type: functional
T7 sequence (P05186 whole entry): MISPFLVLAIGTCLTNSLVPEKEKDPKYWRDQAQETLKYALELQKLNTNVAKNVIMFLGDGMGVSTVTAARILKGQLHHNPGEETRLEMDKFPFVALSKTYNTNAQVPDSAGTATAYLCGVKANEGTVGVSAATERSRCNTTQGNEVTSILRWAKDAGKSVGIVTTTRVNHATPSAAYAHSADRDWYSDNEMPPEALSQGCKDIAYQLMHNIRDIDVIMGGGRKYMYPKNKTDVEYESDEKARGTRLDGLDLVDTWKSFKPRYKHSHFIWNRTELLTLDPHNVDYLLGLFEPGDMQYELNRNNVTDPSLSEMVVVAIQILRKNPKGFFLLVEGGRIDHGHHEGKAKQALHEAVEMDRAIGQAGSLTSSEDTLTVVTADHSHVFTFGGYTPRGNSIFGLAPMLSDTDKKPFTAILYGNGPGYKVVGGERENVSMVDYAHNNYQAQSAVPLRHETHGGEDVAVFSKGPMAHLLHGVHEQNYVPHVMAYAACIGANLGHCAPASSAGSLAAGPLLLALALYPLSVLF

[19] = target: Intestinal-type alkaline phosphatase (Homo sapiens, UniProt P09923); test: activation of human intestinal alkaline phosphatase – biochemical, dose response (AID 488873); type: functional
Sequence of Intestinal-type alkaline phosphatase (Homo sapiens, UniProt P09923) (P09923 whole entry): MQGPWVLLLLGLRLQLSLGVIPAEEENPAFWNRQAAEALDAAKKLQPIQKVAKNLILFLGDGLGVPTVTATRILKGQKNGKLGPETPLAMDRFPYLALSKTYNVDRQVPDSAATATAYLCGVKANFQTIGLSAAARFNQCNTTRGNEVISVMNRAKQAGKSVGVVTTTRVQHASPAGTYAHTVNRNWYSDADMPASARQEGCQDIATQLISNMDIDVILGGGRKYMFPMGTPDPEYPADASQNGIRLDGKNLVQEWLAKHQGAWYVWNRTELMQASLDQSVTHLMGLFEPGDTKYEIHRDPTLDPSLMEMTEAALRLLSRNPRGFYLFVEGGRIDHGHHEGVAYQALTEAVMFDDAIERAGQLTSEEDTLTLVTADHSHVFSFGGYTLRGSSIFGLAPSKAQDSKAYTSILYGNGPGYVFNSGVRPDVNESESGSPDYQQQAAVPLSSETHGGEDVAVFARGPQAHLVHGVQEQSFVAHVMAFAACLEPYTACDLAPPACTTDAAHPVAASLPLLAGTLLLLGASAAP

- IC50 [1]: > 20 µM (inactive)
- IC50 [2]: 14.9 µM (active)
- IC50 [3]: > 20 µM (inactive)
SMILES: CCOC(=O)c1nn(-c2ccccc2)c(=O)cc1OCC(=O)Nc1ccccc1OCC

- IC50 [4]: > 32 µM (inactive)
- EC50 [5]: 5.22 µM
- EC50 [6]: > 32 µM (inactive)
- EC50 [7]: 1.43 µM (active)
- EC50 [8]: > 32 µM (inactive)
- EC50 [9]: > 32 µM (inactive)
- EC50 [10]: 3.18 µM
- EC50 [11]: 2.22 µM (active)
- IC50 [12]: > 32 µM (inactive)
- IC50 [13]: > 32 µM (inactive)
- IC50 [14]: > 32 µM (inactive)
- EC50 [15]: > 32 µM (inactive)
SMILES: C(=C\c1ccccc1)/CSc1nnc(-c2ccccn2)n1Cc1ccco1

- EC50 [16]: 39.9 µM (active)
- AC50 [17]: 8.5 µM (active)
- EC50 [18]: 85.8 µM (active)
- EC50 [19]: 68.4 µM (active)
SMILES: O=C(COC(=O)c1ccc(Br)o1)Nc1ncc([N+](=O)[O-])s1
